In brackets after ≈: the same amount, converted by molar mass.
Conditions: not given
Cc1cc(C)c(N)cc1C gave a solubility of 11.1 mM (≈ 1.5 mg/mL).
Cc1ccc(C(=O)O)cc1C showed a solubility of 0.86 mM (≈ 0.129 mg/mL).
ClCCCCCl gave a solubility of 120 mM (≈ 15.3 mg/mL).
CCOP(=S)(OCC)OCCSCC showed a solubility of 0.232 mM (≈ 0.06 mg/mL).
With COc1coc(CSP(=O)(OC)OC)cc1=O the solubility was 5350 mM (≈ 1500 mg/mL).
For CN(C)c1ccc(C(=O)O)cc1, the solubility was 0.4 mM (≈ 0.0661 mg/mL).
Molecule c1ccc(N=NNc2ccccc2)cc1 has a solubility of 2.54 mM (≈ 0.5 mg/mL).
Nc1nc(=O)c2[nH]c(=O)c(=O)[nH]c2[nH]1 gave a solubility of 0.00683 mM (≈ 0.00133 mg/mL).

Same assay, conditions: 20 °C
With FC(F)(F)c1cccc(C(c2ccccc2)(c2ccccc2)n2cncn2)c1 the solubility was 3.95e-06 mM (≈ 1.5e-06 mg/mL).
In the case of Cc1nnc(-c2ccccc2)c(=O)n1N, the solubility is reported as 8.9 mM (≈ 1.8 mg/mL).
In the case of CCCCNC(=O)n1c(NC(=O)OC)nc2ccccc21, the solubility is reported as 0.0131 mM (≈ 0.0038 mg/mL).
Clc1c(Cl)c(Cl)c2c(c1Cl)Oc1c(Cl)c(Cl)c(Cl)c(Cl)c1O2 showed a solubility of 8.7e-10 mM (≈ 4e-10 mg/mL).
For Cc1cc(Cl)ccc1N=CN(C)C, the solubility was 1.37 mM (≈ 0.27 mg/mL).
For Clc1ccc(-c2c(Cl)cc(Cl)c(Cl)c2Cl)cc1Cl, the solubility was 2.24e-05 mM (≈ 8.07e-06 mg/mL).
With C=C(C(=O)O)c1ccccc1 the solubility was 8.77 mM (≈ 1.3 mg/mL).
Molecule O=[N+]([O-])c1cc(Cl)c(Cl)c(Cl)c1Cl has a solubility of 0.028 mM (≈ 0.0073 mg/mL).
CNC(=O)N(C)c1nc2ccccc2s1 gave a solubility of 0.267 mM (≈ 0.059 mg/mL).
Molecule O=C(Nc1ccccc1)c1ccccc1I has a solubility of 0.0619 mM (≈ 0.02 mg/mL).
With COc1ccc(C(=O)c2cccc(C)c2)cc1C the solubility was 0.00832 mM (≈ 0.002 mg/mL).
O=c1nc[nH]c2nccnc12 showed a solubility of 33.8 mM (≈ 5 mg/mL).
For Clc1ccc2c(c1)Oc1c(Cl)c(Cl)c(Cl)c(Cl)c1O2, the solubility was 3.37e-07 mM (≈ 1.2e-07 mg/mL).
For O=c1cc(O)cc[nH]1, the solubility was 56.3 mM (≈ 6.25 mg/mL).
In the case of Clc1ccc2c(c1)Oc1cc(Cl)c(Cl)c(Cl)c1O2, the solubility is reported as 1.34e-06 mM (≈ 4.3e-07 mg/mL).
For CCOC(=O)C(c1c(O)c2ccccc2oc1=O)c1c(O)c2ccccc2oc1=O, the solubility was 0.375 mM (≈ 0.153 mg/mL).
Work on CN(C)C(=O)Nc1ccc(Oc2ccc(Cl)cc2)cc1 yielded a solubility of 0.0127 mM (≈ 0.0037 mg/mL).
In the case of CCCCCCCC(=O)OC, the solubility is reported as 0.407 mM (≈ 0.0644 mg/mL).
With O=c1[nH]c(=O)c2[nH]c(=O)[nH]c2[nH]1 the solubility was 0.353 mM (≈ 0.0593 mg/mL).
Work on COC(=O)C(C)N(C(=O)c1ccco1)c1c(C)cccc1C (stereo unspecified) yielded a solubility of 0.763 mM (≈ 0.23 mg/mL).
Work on COc1ccc2c(c1O)[C@]13CCN(C)[C@H](C2)[C@@H]1C=CC(=O)C3 yielded a solubility of 13.4 mM (≈ 4 mg/mL).
With CC(C)Cl the solubility was 39.5 mM (≈ 3.1 mg/mL).
For CCOP(=O)(OCC)SCC(=O)NC(C)(C)C#N, the solubility was 238 mM (≈ 70 mg/mL).
For Clc1cccc(-c2ccccc2Cl)c1, the solubility was 0.0026 mM (≈ 0.00058 mg/mL).

Same assay, conditions: 21 °C
Molecule CCOc1ccc(NC(N)=O)cc1 has a solubility of 6.71 mM (≈ 1.21 mg/mL).
O=C(O)CCCCCCCCCC(=O)O showed a solubility of 23.6 mM (≈ 5.1 mg/mL).

Same assay, conditions: 22 °C
Work on OC[C@@H](O)[C@@H](O)CO yielded a solubility of 4990 mM (≈ 610 mg/mL).
In the case of COC(=O)[C@@H]1C2CCC(C[C@@H]1OC(=O)c1ccccc1)N2C (stereo partly specified), the solubility is reported as 5.93 mM (≈ 1.8 mg/mL).
Molecule CCCC(C)C(=O)Nc1ccc(C)c(Cl)c1 (stereo unspecified) has a solubility of 0.0355 mM (≈ 0.0085 mg/mL).
For O=C(O)[C@@H](O)[C@H](O)[C@H](O)[C@@H](O)C(=O)O, the solubility was 229 mM (≈ 48 mg/mL).

Same assay, conditions: 23 °C
For Nc1ccc(C(=O)O)c(O)c1, the solubility was 11 mM (≈ 1.69 mg/mL).
In the case of CC(=O)Nc1cc(NS(=O)(=O)C(F)(F)F)c(C)cc1C, the solubility is reported as 0.58 mM (≈ 0.18 mg/mL).
C[C@]12CC[C@@H](O)C[C@@H]1CC[C@@H]1[C@@H]2CC[C@]2(C)C(=O)CC[C@@H]12 showed a solubility of 0.0461 mM (≈ 0.0134 mg/mL).

Same assay, conditions: 24 °C
CN(C)CCCN1c2ccccc2CCc2ccccc21 showed a solubility of 0.065 mM (≈ 0.0182 mg/mL).
CCN(CC)N=O showed a solubility of 1040 mM (≈ 106 mg/mL).
Molecule CN(C)CCCN1c2ccccc2Sc2ccccc21 has a solubility of 0.0499 mM (≈ 0.0142 mg/mL).
CC(C)COC(=O)c1ccccc1C(=O)OCC(C)C showed a solubility of 0.0223 mM (≈ 0.0062 mg/mL).

Same assay, conditions: 25 °C
In the case of CC=CC(C)O (stereo unspecified), the solubility is reported as 1040 mM (≈ 89.2 mg/mL).
Clc1cccc(Cl)c1-c1c(Cl)cccc1Cl gave a solubility of 4.08e-05 mM (≈ 1.19e-05 mg/mL).
Work on Clc1cccc(Cl)c1-c1ccccc1 yielded a solubility of 0.0108 mM (≈ 0.00241 mg/mL).
For CCC(C)(C)CC, the solubility was 0.0591 mM (≈ 0.00592 mg/mL).
O=C(O)COc1ccc(Cl)cc1 showed a solubility of 5.13 mM (≈ 0.957 mg/mL).
O=C(O)c1ccccc1C(=O)Nc1cccc2ccccc12 gave a solubility of 0.687 mM (≈ 0.2 mg/mL).
CCOc1ccccc1 gave a solubility of 4.66 mM (≈ 0.569 mg/mL).
For CCCC(C)O (stereo unspecified), the solubility was 506 mM (≈ 44.6 mg/mL).
For CCCOP(=O)(OCCC)Oc1ccc(SC)cc1, the solubility was 0.411 mM (≈ 0.125 mg/mL).
Molecule Fc1ccccc1CCl has a solubility of 2.88 mM (≈ 0.416 mg/mL).
Molecule c1ccc(CCc2ccccc2)cc1 has a solubility of 0.0236 mM (≈ 0.0043 mg/mL).
Clc1ccc(Cl)c(-c2c(Cl)ccc(Cl)c2Cl)c1Cl showed a solubility of 1.25e-05 mM (≈ 4.51e-06 mg/mL).
Molecule CCOC(=O)c1c[nH]c(=S)[nH]c1=O has a solubility of 7.97 mM (≈ 1.6 mg/mL).
For Clc1cccc(-c2cccc(Cl)c2Cl)c1Cl, the solubility was 5.34e-05 mM (≈ 1.56e-05 mg/mL).
With O=C(O)c1cccc([N+](=O)[O-])c1C(=O)O the solubility was 95.2 mM (≈ 20.1 mg/mL).
CCC(C)C(C)C (stereo unspecified) gave a solubility of 0.0524 mM (≈ 0.00525 mg/mL).
NCC[C@H](O)C(=O)N[C@@H]1C[C@H](N)[C@@H](O[C@H]2O[C@H](CN)[C@@H](O)[C@H](O)[C@H]2O)[C@H](O)[C@H]1O[C@H]1O[C@H](CO)[C@@H](O)[C@H](N)[C@H]1O gave a solubility of 316 mM (≈ 185 mg/mL).
O=C(O)c1ccccc1 showed a solubility of 24.8 mM (≈ 3.03 mg/mL).
c1ccsc1 showed a solubility of 35.8 mM (≈ 3.01 mg/mL).
CCCCC1(CC)C(=O)NC(=O)NC1=O showed a solubility of 23 mM (≈ 4.88 mg/mL).
For ClCC1CO1 (stereo unspecified), the solubility was 712 mM (≈ 65.9 mg/mL).
CC(=O)C(C)C gave a solubility of 706 mM (≈ 60.8 mg/mL).
c1cnc2c(c1)ccc1cccnc12 showed a solubility of 14.9 mM (≈ 2.69 mg/mL).
In the case of CC(C)CCOC(=O)c1ccccc1O, the solubility is reported as 0.696 mM (≈ 0.145 mg/mL).
C=CCCCC=C gave a solubility of 0.458 mM (≈ 0.044 mg/mL).
Molecule O=C(O)c1cc(=O)c(O)c(C(=O)O)o1 has a solubility of 42 mM (≈ 8.4 mg/mL).
With CC(Cl)(Cl)C(=O)O the solubility was 3510 mM (≈ 502 mg/mL).
Cc1ccc(C)c2c(C)cccc12 gave a solubility of 0.0123 mM (≈ 0.0021 mg/mL).
For Clc1cc(Cl)c(-c2ccccc2)c(Cl)c1, the solubility was 0.000978 mM (≈ 0.000252 mg/mL).
CCCCC=O showed a solubility of 136 mM (≈ 11.7 mg/mL).
For Cc1ccnc2c1ccc1c(C)ccnc12, the solubility was 0.107 mM (≈ 0.0224 mg/mL).
Molecule Clc1ccccc1-c1c(Cl)cc(Cl)c(Cl)c1Cl has a solubility of 3.68e-05 mM (≈ 1.2e-05 mg/mL).
FC1(F)C(F)(F)C(F)(F)C1(F)F showed a solubility of 0.165 mM (≈ 0.033 mg/mL).
Work on COc1ccccc1 yielded a solubility of 9.62 mM (≈ 1.04 mg/mL).
For CC(Oc1ccc(Cl)cc1)C(=O)O (stereo unspecified), the solubility was 7.33 mM (≈ 1.47 mg/mL).
With O=[N+]([O-])O[C@H]1CO[C@H]2[C@@H]1OC[C@H]2O[N+](=O)[O-] the solubility was 2.33 mM (≈ 0.55 mg/mL).
With CCCCCCCCCCCCCC(=O)O the solubility was 0.00468 mM (≈ 0.00107 mg/mL).
Clc1ccc(-c2c(Cl)cc(Cl)cc2Cl)cc1 gave a solubility of 0.000312 mM (≈ 9.11e-05 mg/mL).
CCCCCBr gave a solubility of 0.841 mM (≈ 0.127 mg/mL).
In the case of CCCOC(C)C, the solubility is reported as 46 mM (≈ 4.7 mg/mL).
Clc1ccc(-c2ccc(Cl)c(Cl)c2)cc1Cl showed a solubility of 1.95e-06 mM (≈ 5.69e-07 mg/mL).
With Cc1ccccc1O the solubility was 239 mM (≈ 25.9 mg/mL).
Molecule C=CCc1ccc(OC)cc1 has a solubility of 1.2 mM (≈ 0.178 mg/mL).
O=C(Nc1ccccc1)c1ccccc1O gave a solubility of 0.258 mM (≈ 0.055 mg/mL).
With C(=C\c1ccccc1)/CN1CCN(C(c2ccccc2)c2ccccc2)CC1 the solubility was 2.04 mM (≈ 0.75 mg/mL).
For Cc1ccccc1C(=O)O, the solubility was 8.67 mM (≈ 1.18 mg/mL).
CCC(C)Cl (stereo unspecified) showed a solubility of 10.8 mM (≈ 1 mg/mL).
Molecule C[C@]12CC[C@H]3C(=CCc4cc(O)ccc43)[C@@H]1CCC2=O has a solubility of 0.00525 mM (≈ 0.00141 mg/mL).
Molecule CC(C)(C)CC(=O)OCC(=O)[C@@]1(O)CC[C@H]2[C@@H]3CCC4=CC(=O)CC[C@]4(C)[C@H]3[C@@H](O)C[C@@]21C has a solubility of 0.00308 mM (≈ 0.00142 mg/mL).
Work on O=C1CSC(=S)N1 yielded a solubility of 16.9 mM (≈ 2.25 mg/mL).
With CC(C)CC(C)(C)C the solubility was 0.0196 mM (≈ 0.00224 mg/mL).
In the case of CC(=O)Nc1ccc(OC(C)=O)cc1, the solubility is reported as 12.4 mM (≈ 2.39 mg/mL).
O=C=O showed a solubility of 33.5 mM (≈ 1.47 mg/mL).
Molecule COc1ccc(C=O)cc1 has a solubility of 31.5 mM (≈ 4.29 mg/mL).
For ClCCCCl, the solubility was 24.3 mM (≈ 2.75 mg/mL).
For CCCCCCOC(C)=O, the solubility was 3.54 mM (≈ 0.511 mg/mL).

Same assay, conditions: 27 °C
Cc1cc2ccccc2c2ccc3ccccc3c12 gave a solubility of 0.000256 mM (≈ 6.2e-05 mg/mL).
CCCCOC=O gave a solubility of 74 mM (≈ 7.56 mg/mL).

Same assay, conditions: 30 °C
In the case of COc1c2occc2cc2ccc(=O)oc12, the solubility is reported as 0.22 mM (≈ 0.0476 mg/mL).
Work on Cc1cccc(Nc2ccccc2C(=O)O)c1C yielded a solubility of 0.0829 mM (≈ 0.02 mg/mL).
In the case of NCCCCCCCCCCC(=O)O, the solubility is reported as 4.97 mM (≈ 1 mg/mL).
Molecule COc1cnc(NS(=O)(=O)c2ccc(N)cc2)nc1 has a solubility of 2.6 mM (≈ 0.73 mg/mL).
Molecule CN(C)CCN(Cc1cccs1)c1ccccn1 has a solubility of 2.3 mM (≈ 0.601 mg/mL).
CN=C(O)Oc1cccc(C)c1 gave a solubility of 15.7 mM (≈ 2.6 mg/mL).
COP(=S)(OC)Oc1ccc(C#N)cc1 gave a solubility of 0.189 mM (≈ 0.046 mg/mL).
Work on COC(=O)[C@H]1[C@H]2C[C@@H]3c4[nH]c5cc(OC)ccc5c4CCN3C[C@H]2C[C@@H](OC(=O)c2cc(OC)c(OC)c(OC)c2)[C@@H]1OC yielded a solubility of 0.12 mM (≈ 0.073 mg/mL).

Reference: the OPERA property sets (Mansouri et al. 2018)
